{
  "source": "patent US20100112012A1",
  "about": "“MODULATION OF IMMUNE RESPONSES” (CLEVELAND CLINIC FOUNDATION, priority 2005, published 2010)",
  "key": {"RCC cell lines": {"tested_on": "RCC cell lines", "experiment": "Growth inhibition assay, RCC, non-RCC and normal kidney (NKE) cells", "type": "cell-based, human", "details": "6 RCC and 6 non-RCC cell lines, growth inhibition assay", "quoted_text": "Growth inhibition assay. […] Cell survival was estimated after an additional 48 hours, using standard Methylene Blue staining followed by extraction and colorimetrical detection of the dye."}, "p53 [1]": {"tested_on": "p53", "experiment": "Phosphorylation status of p53 (Western analysis)", "type": "cell-based, human", "details": "RCC45 cells, 9AA 5 μM, 16 h", "experimental": "(§1) Cells were lysed in RIPA buffer (25 mM Tris HCl, pH 7.2, 125 mM NaCl, 1% NP40, 1% sodium deoxycholate, 1 mM EDTA) containing 1 mM PMSF (Sigma), 10 ug/ml of aprotinin (Sigma) and 10 ug/ml of leupeptin (Sigma). Protein concentrations were determined with the BioRad Dc protein assay kit. Equal protein amounts were run on gradient 4-20% precast gels (Novex) and blotted onto PVDF membranes (Amersham). The following antibodies were used: anti-p53—monoclonal mouse DO1 (Santa-Cruz), anti-p21—monoclonal mouse F-5 (Santa-Cruz), anti-mdm2—monoclonal mouse SMP14 (Santa-Cruz), anti-p65—(C20, Santa Cruz), anti-phospho-p65—(ser536, Cell Signaling), anti-IκBa—(C21, Santa Cruz), anti-p50—(NLS, Santa Cruz), anti-IKK1 (Cell Signaling), anti-γH2X (Cell Signaling), anti-actin (Santa Cruz). p53 phosphorylation status was analyzed using the phospho-p53 sampler kit from Cell Signaling according to the manufacturer's recommendations. HRP-conjugated secondary antibodies were purchased from Santa Cruz. Quantitation of the data was performed using Quantity One software from BioRad."}, "IκBα": {"tested_on": "IκBα", "experiment": "IκBα level (Western analysis)", "type": "cell-based, human", "details": "TNF 10 ng/ml, 9AA 10 μM", "experimental": "as §1"}, "[2]": {"tested_on": "androgen receptor, N-Myc, CLOCK/Bmal and Smad", "experiment": "Reporter activity of other transcriptional activators", "type": "cell-based", "details": "data not shown"}, "p53 [3]": {"tested_on": "p53", "experiment": "p53 reporter in organ cultures of human RCC tumor samples", "type": "cell-based", "details": "12 hours", "experimental": "FIG. 11. QC can activate p53 transactivation in organ cultures of human RCC tumor samples. Fresh surgically removed samples of tumor and adjacent normal kidney were cut into small pieces and put into media containing ConALacZ virus (5×10^7 TU/ml) with […] of polybrene for 4 hours. 24 hours after infection, tissue pieces (at least three per treatment) were incubated with media containing quinacrine or doxorubicin for 12 hours. Then the tissues were fixed for 30 min in PBS containing 0.5% glutaraldehyde and 1 mM MgCl2. Pieces of tumor were stained in PBS solution containing X-gal (1 mM MgCl2, 3.3 mM K4Fe(CN)6, 3.3 mM K3Fe(CN)6, 0.02% NP40, 0.2% X-gal) overnight at 37° C. Stained specimens were analyzed microscopically by squeezing pieces of tumor and normal tissues between two glass slides."}, "[4]": {"tested_on": "hapten-specific CD8 T cells producing IFN-γ", "experiment": "ELISPOT assay of hapten-specific CD8 T cells producing IFN-γ", "type": "in vivo, BALB/c mice", "details": "day +5", "experimental": "ELISPOT assays to enumerate hapten-specific T cells producing IFN-γ were performed as previously described. Briefly, ELISPOT plates (Millipore, Bedford, Mass.) were coated with 100 ml of […] anti-IFN-γ mAb R26A2 and incubated overnight at […]. The plates were blocked with 1% BSA in PBS for 90 min at 37° C. and washed four times with PBS. LNC suspensions from DNFB-sensitized mice were prepared on day +5 after sensitization and CD8 + T cells were enriched by negative selection using Dynabeads (Dynal A. S., Oslo, Norway). The efficiency of CD4+ T cell depletion was >95% as assessed by flow cytometry. Syngeneic spleen cells from naive mice were treated with […] mitomycin C, hapten-labeled by incubation with DNBS ([…]), and used as stimulator cells. Responder LNC were resuspended in serum-free HL-1 medium (BioWhittaker, Walkersville, Md.) and cultured at 3×10^5 cells/well with 5×10^5 stimulator cells/well 24 h at 37° C. in 5% CO2. In all experiments responder CD8+ T cells cultured with unlabeled splenocytes and LNC from naive mice cultured with DNBS-labeled stimulator cells were used as negative controls. […] The resulting spots were counted on an ImmunoSpot Series 1 Analyzer (Cellular Technologies Ltd., Cleveland, Ohio) that was designed to detect spots with predetermined criteria for size, shape and colorimetric density. […]"}, "ovalbumin-specific IgG": {"tested_on": "ovalbumin-specific IgG", "experiment": "Ovalbumin immunization, ovalbumin-specific IgG titers by ELISA", "type": "in vivo, BALB/c mice", "details": "ovalbumin 100 ug i.p. days 0 and 7; quinacrine 80 mg/kg days 1, 2, 8 and 9; serum day 14"}},
  "note": "Entries after “also recorded” stand apart in the source; their conditions may differ.",
  "data": [
    {"smiles": "CCN(CC)CCCC(C)Nc1c2ccc(Cl)cc2nc2ccc(OC)cc12", "note": "(stereo not drawn) [QC, quinacrine]", "values": [
      {"measurement": "IC50 in RCC cells compared with non-RCC cells", "setting": "RCC cell lines", "result": "in the same range as for non-RCC cells"},
      {"measurement": "phosphorylation of p53", "setting": "p53 [1]", "result": "did not induce the phosphorylation of p53"},
      {"measurement": "TNF-stimulated induction of IκBα", "setting": "IκBα", "result": "blocked"},
      {"measurement": "activity of other transcriptional activators (androgen receptor, N-Myc, CLOCK/Bmal and Smad)", "setting": "[2]", "result": "did not change the activity"},
      {"measurement": "p53-responsive reporter induction in normal kidney samples", "setting": "p53 [3]; organ cultures of adjacent normal kidney", "result": "no reporter induction"},
      {"measurement": "expression of a p53-responsive reporter in tumor samples", "setting": "p53 [3]; organ cultures of human RCC", "result": "can be also detected in short-term organ cultures; also recorded: induced expression of a p53-responsive reporter in tumor samples"},
      {"measurement": "increase in priming of antigen-specific effector T cells", "setting": "[4]; quinacrine on days 0 and +1 (during sensitization)", "result": "~3", "unit": "fold"},
      {"measurement": "priming of antigen-specific T cells (IFN-γ producing CD8 T cells)", "setting": "[4]; quinacrine on days −2 and −1 (just prior to sensitization)", "result": "inhibits the priming of antigen-specific T cells; also recorded: decreased the priming of antigen-specific T cells"},
      {"measurement": "increase of antigen-specific titers of IgG", "setting": "ovalbumin-specific IgG", "result": 4, "unit": "fold"}
    ]}
  ]
}
